From US6355225B1, “Fullerene contrast agent for magnetic resonance imaging and spectroscopy” (Wm. Marsh Rice University TDA Research, Inc., priority 1999, dated 2002)

How the values were obtained:
Assay type in all cases: physicochemical
[1] = Water solubility of the C60(OH)32 fullerol
[2] = Effective magnetic moment of solid sample, Quantum Design MPMS-5S magnetometer at 5 Tesla; conditions: 300 K, after diamagnetic correction
From the text: (§1) The magnetic properties of the fullerol were characterized by several methods. […] A solid sample was further studied using a Quantum Design MPMS-5S […] magnetometer operating at 5 Tesla. […] After correction for the diamagnetic contribution of the sample (using data from C60 for the fullerene carbons and Pascal's constants for the OH groups), the final value of the effective magnetic moment, μb, of the C60(OH)32 is approximately 1.5 Bohr magnetons at 300 K. Given the large diamagnetic contribution, uncertainty in the diamagnetic correction factors, and assuming no spin orbit or other types of spin coupling, this is within the experimental error for predicting one free electron per fullerol molecule in the solid state. A measurement of the paramagnetism of the solution form of the acid fullerol was then conducted using the NMR method employing D2O as the solvent and t-butyl alcohol as the reference compound. Measurement of the chemical shift of the reference peaks indicated a paramagnetism of 2.1 Bohr magnetons at 300 K when in solution.

[3] = Paramagnetism in solution by the NMR method (D2O solvent, t-butyl alcohol reference); conditions: 300 K
From the text: as §1

[4] = Water proton relaxivity (T1), Bruker PC/20 relaxometer; conditions: 20 MHz (0.47 T), 40° C., four concentrations
Method: The paramagnetic fullerol's potential as an MRI relaxation agent was evaluated by direct measurement of its water proton relaxivity using a Bruker model PC/20 relaxometer (Bruker Ltd., Canada) operating at a fixed field of 20 MHz (0.47 T) and 40° C. Four separate measurements at four different concentrations were performed to determine the T1 relaxation. A plot of the results is shown in FIG. 3 and indicates a relaxivity of about 0.5 mM^−1sec^−. The relaxivity of the compound is thus considerably lower than the best currently available Gd-chelates (ca. […]) but is still large enough to be useful in the body.

[5] = Air stability of the paramagnetic fullerol
From the text: According to a second embodiment, a water-soluble, paramagnetic fullerene derivative comprising about 32 hydroxyl groups attached to C60 fullerene was synthesized and shown to be air-stable, paramagnetic, and an efficient water proton relaxation agent.
These experimental results make C60(OH)32 (or C60(OH)32^− or C60(OH)32^2−) the first reported water-soluble, air-stable fullerene paramagnetic radical.

solubility in water [1]: at least 4 mM | effective magnetic moment [2]: approximately 1.5 Bohr magnetons | paramagnetism in solution [3]: 2.1 Bohr magnetons | water proton relaxivity (T1) [4]: about 0.5 mM^−1sec^− | stability in air [5]: air-stable
Substance: C60(OH)32
